The values below are quoted from earlier work in patent publication US5889008A, “Substituted 1-indolylpropyl-4-phenethylpiperazadine derivatives” (Merck Sharp & Dohme, Ltd., priority 1995, dated 1999).

In series [1] the test system is human 5-HT1Dα and 5-HT1Dβ receptor subtypes. The settings on record: cf. WO-A-91/17174, Table 1.
Another series deals with humans. The settings on record: therapeutic doses.

In the case of `CNS(=O)(=O)Cc1ccc2[nH]cc(CCN(C)C)c2c1` [sumatriptan], the “discrimination between the human 5-HT1Dα and 5-HT1Dβ receptor subtypes” value in series [1] was “barely discriminates between the human 5-HT1Dα and 5-HT1Dβ receptor subtypes”. Also, the adverse cardiovascular events result in the series with humans is “certain adverse cardiovascular events”.
